Results filed as inconclusive are left out. Active and inactive are the calls of the source. The rule behind the calls is not given here.
system: Mycobacterium tuberculosis non-replicating, growth inhibition; assay: growth inhibition of non-replicating M. tuberculosis (AID 488890)

Q: With `O=C(NC(=S)N1CCc2ccccc21)c1ccccc1` as the compound, how does the IC50 read?
A: Its IC50 is 11.6 µM (inactive).

Q: For `CC(C)C[C@H]1CN=C(Nc2ccccc2)N1CCCC1CCCCC1`, which IC50 is on record?
A: Its IC50 is 8.79 µM.

Q: With `Cc1cccc(OC(=O)c2ccc3nccnc3c2)c1` as the compound, how does the IC50 read?
A: Its IC50 is 7.79 µM.

Q: `NC(N)=N/N=C/c1cc([N+](=O)[O-])ccc1O` was tested. Which IC50 did it give?
A: The IC50 was 4.29 µM.

Q: `Cc1c(Cl)cccc1NC(=O)C1COc2ccccc2O1` (configuration not stated) was tested. Which IC50 did it give?
A: The IC50 was 12.1 µM (inactive).

Q: `O=C(Nc1nnc(-c2ccco2)o1)c1ccc(Cl)s1` was tested. Which IC50 did it give?
A: The IC50 was 11.2 µM (inactive).

Q: `O=C(COC(=O)CCc1c[nH]c2ccccc12)NCc1ccc(Cl)cc1` was tested. Which IC50 did it give?
A: Its IC50 is 7.82 µM.

Q: Which IC50 does the source give for `CC(C)(C)c1ccc(NC(=O)COc2ccc(-n3ccnc3)cc2)cc1` here?
A: Its IC50 is 30.2 µM (inactive).

Q: Which IC50 does the source give for `O=C(Nc1ncc2c(n1)-c1ccccc1OC2)c1ccc(F)cc1` here?
A: The IC50 was 4.39 µM.

Q: Which IC50 does the source give for `Cc1cc(N2CCN(c3ccccc3)CC2)nc(-n2nc(C)cc2C)n1` here?
A: Its IC50 is 6.28 µM.

Q: How did the IC50 turn out when `Cc1ccc(C2=NN(C)c3nc4ccccc4n3C2)cc1` was run?
A: The IC50 was 18.7 µM (inactive).

Q: For `O=C(NNC(=S)NC(=O)c1cn(-c2ccccc2)nc1-c1ccccc1)c1ccncc1`, which IC50 is on record?
A: The IC50 was 21.9 µM (inactive).

Q: For `CCOc1cc(/C=N/NC(=O)c2ccccn2)ccc1OC(=O)c1cccs1`, which IC50 is on record?
A: The IC50 was 5.55 µM.

Q: How did the IC50 turn out when `COc1ccc(CCNc2cc(-c3ccccc3)nc3ncnn23)cc1` was run?
A: The IC50 was 0.49 µM.

Q: Which IC50 does the source give for `Cn1c(NC(=O)c2ccccc2)nc2ccccc21` here?
A: Its IC50 is 2.7 µM.

Q: With `Cc1nc(C(=O)Nc2ccccc2)sc1C(=O)Nc1ccccc1` as the compound, how does the IC50 read?
A: Its IC50 is 9.77 µM.

Q: How did the IC50 turn out when `Nc1ccccc1C(=O)NNC1=C(C(=O)C(F)(F)F)CCC1` was run?
A: Its IC50 is 14.7 µM (inactive).

Q: `CCCCCCCC(=O)N/N=C(/C)c1c(O)cc(C)oc1=O` was tested. Which IC50 did it give?
A: The IC50 was 4.26 µM.

Q: Which IC50 does the source give for `Cc1cc(Nc2ccccc2)n(-c2nc3ccccc3[nH]2)n1` here?
A: The IC50 was 3.88 µM.

Q: Which IC50 does the source give for `O=C(NCC1CCN(c2ccc(S(=O)(=O)N3CCOCC3)cc2)CC1)c1ccc(Cl)cc1` here?
A: Its IC50 is 24.1 µM (inactive).

Q: Which IC50 does the source give for `Cc1ccc(/C=N/NC(=O)C2COc3ccccc3O2)s1` (configuration not stated) here?
A: The IC50 was 0.7 µM.

Q: How did the IC50 turn out when `CCCCOc1ccc(NC(=O)CN2CCN(Cc3ccccc3)CC2)cc1` was run?
A: The IC50 was 25.6 µM (inactive).

Q: How did the IC50 turn out when `O=C(CN1CCN(c2ccccc2)CC1)Nc1nnc(-c2ccccc2)s1` was run?
A: Its IC50 is 9.53 µM.

Q: `C=C(C)C1CC=C(C)/C(=N/NC(=O)CNc2ccc(OCC)cc2)C1` (configuration not stated) was tested. Which IC50 did it give?
A: Its IC50 is > 25 µM (inactive).

Q: How did the IC50 turn out when `CC(C)(C)c1ccc(S(=O)(=O)NNC(=O)c2cc3ccccc3[nH]2)cc1` was run?
A: The IC50 was > 25 µM (inactive).

Q: With `C(=C\c1ccccc1)/CSc1nc2ncccc2[nH]1` as the compound, how does the IC50 read?
A: The IC50 was 4.36 µM.

Q: `O=C(COc1ccccc1)NCCSCc1ccc(Cl)cc1` was tested. Which IC50 did it give?
A: The IC50 was 16.4 µM (inactive).

Q: How did the IC50 turn out when `Cc1ccccc1-n1nnc2c(=O)oc3ccccc3c21` was run?
A: The IC50 was 0.44 µM.

Q: How did the IC50 turn out when `O=c1cc(C(F)(F)F)[nH]c2c(C(F)(F)F)cccc12` was run?
A: The IC50 was 5.78 µM.

Q: For `CCC(=O)N1CCN(c2cc3c(cc2F)c(=O)c(C(=O)O)cn3CC)CC1`, which IC50 is on record?
A: The IC50 was 7.67 µM.

Q: For `O=C(Nc1nccs1)c1ccc(-c2ccc(Cl)cc2)o1`, which IC50 is on record?
A: The IC50 was 21.3 µM (inactive).

Q: Which IC50 does the source give for `CC(=O)Oc1c(C)cc(Cl)cc1C(=O)Nc1ccc([N+](=O)[O-])cc1Cl` here?
A: The IC50 was 2.71 µM.

Q: How did the IC50 turn out when `CCc1nonc1NC(=O)COc1ccc(Cl)c(C)c1` was run?
A: Its IC50 is 9.9 µM.

Q: Which IC50 does the source give for `Cc1nn2c(NCc3ccccn3)cc(C(C)C)nc2c1-c1ccccc1` here?
A: Its IC50 is 1.44 µM.

Q: With `O=C(Nc1ccccc1)c1nnsc1S(=O)c1ccc(Cl)cc1` (configuration not stated) as the compound, how does the IC50 read?
A: The IC50 was 0.34 µM.

Q: Which IC50 does the source give for `Cc1ccc(N=Nc2c(C)[nH]n(C(N)=S)c2=O)cc1C` here?
A: The IC50 was 0.57 µM.

Q: Which IC50 does the source give for `Cc1nn2c(NCCN(C)C)c3c(nc2c1-c1ccccc1)CCCC3` here?
A: Its IC50 is 5.07 µM.

Q: `CC(C)[C@H](NC(=O)c1ccc(Br)cc1)C(=O)NC1CCCCC1` was tested. Which IC50 did it give?
A: Its IC50 is 1.37 µM.

Q: Which IC50 does the source give for `CC1=NN(C(=O)c2csc(C)c2)C(O)(C(F)(F)F)C1` (configuration not stated) here?
A: Its IC50 is 0.49 µM.

Q: `COc1cc(CNC2CCCC2)cc(Cl)c1OCc1ccccc1Cl` was tested. Which IC50 did it give?
A: The IC50 was 9.58 µM.

Q: How did the IC50 turn out when `O=[N+]([O-])c1ccc(/C=N/NS(=O)(=O)c2ccc(Cl)cc2)o1` was run?
A: The IC50 was 14.7 µM (inactive).

Q: `Clc1ccc(-c2ccc(CNCc3ccccn3)o2)cc1` was tested. Which IC50 did it give?
A: Its IC50 is 0.77 µM.

Q: How did the IC50 turn out when `O=C(Nc1nc(-c2ccccn2)cs1)c1ccco1` was run?
A: The IC50 was 6.64 µM.

Q: For `O=C(NCCC1CCCC1)c1cccs1`, which IC50 is on record?
A: Its IC50 is 1.37 µM.

Q: With `COC(=O)c1cccc(COC(=O)c2cc3ccccc3oc2=O)c1` as the compound, how does the IC50 read?
A: Its IC50 is 11.7 µM (inactive).

Q: `CCCc1nnc(-c2ccc(OC)cc2)o1` was tested. Which IC50 did it give?
A: Its IC50 is 1.24 µM.

Q: How did the IC50 turn out when `CS/C(Nc1cc(Cl)ccc1Cl)=C(/C#N)C(=O)c1ccco1` was run?
A: The IC50 was 1.5 µM.
